# Results: patent US8263656B2 (Hoffmann-La Roche Inc., priority 2008, dated 2012)
# Biological target: T1, human CRTH2 (Homo sapiens, UniProt Q9Y5Y4)
# T1 construct: expressed in transfected cells
# T1 sequence (Q9Y5Y4 1-395): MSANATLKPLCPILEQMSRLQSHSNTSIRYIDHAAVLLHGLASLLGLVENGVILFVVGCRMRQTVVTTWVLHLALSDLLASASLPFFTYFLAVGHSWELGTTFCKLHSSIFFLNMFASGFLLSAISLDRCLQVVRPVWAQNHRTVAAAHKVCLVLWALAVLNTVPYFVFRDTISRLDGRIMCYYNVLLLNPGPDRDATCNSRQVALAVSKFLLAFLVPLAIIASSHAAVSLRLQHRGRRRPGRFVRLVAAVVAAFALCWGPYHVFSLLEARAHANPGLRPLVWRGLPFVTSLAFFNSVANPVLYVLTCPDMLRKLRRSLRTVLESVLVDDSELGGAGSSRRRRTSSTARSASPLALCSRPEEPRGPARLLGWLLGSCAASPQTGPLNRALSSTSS
# Experiment: Human CRTH2 Receptor Binding Assay (whole cell, [3H]ramatroban competition)
# Conditions: CHO-K1 cells expressing human CRTH2 and G-alpha16; 20 nM [3H]ramatroban; 1 hour, room temperature
# Excerpt: A whole cell receptor binding assay using [^3H]ramatroban as the competing radioactive ligand was employed to evaluate the compound binding activity to human CRTH2. The radioactive ligand [^3H]ramatroban was synthesized according to Sugimoto et. al. (Eur. J. Pharmacol. 524, 30-37, 2005) to a specific activity of 42 Ci/mmol.
# A cell line stably expressing human CRTH2 was established by transfecting CHO-K1 cells with two mammalian expression vectors that harbored human CRTH2 and G-alpha16 cDNAs, respectively, using FuGene® 6 transfection reagent (from Roche). Stable clones expressing CRTH2 were selected by staining each clone with BM16 (BD Pharmingen™ from BD Biosciences, a division of Becton, Dickinson and Company), which is a rat monoclonal antibody to human CRTH2. The cells were maintained as monolayer cultures in Ham's F-12 medium containing 10% fetal bovine serum, 100 units/mL penicillin, […] streptomycin, 2 mM glutamine, 0.5 mg/mL G418 (geneticin) for CRTH2, and 0.2 mg/mL hygromycin-B (for G-alpha 16). For whole cell receptor binding assay, the monolayer cells were rinsed once with PBS (phosphate buffered saline), dissociated using diammonium ethylenediaminetetraacetate (Versene™ EDTA from the Dow Chemical Company), and suspended in PBS containing 10 mM MgCl2 and 0.06% BSA (bovine serum albumin) at 1.5×10^6 cells/mL.
# The binding reactions (0.2 mL) were performed in 96-well plates at room temperature in PBS containing 1.5×10^5 cells, 10 mM MgCl2, 0.06% BSA, 20 nM [^3H]ramatroban, and test compound at various concentrations. After 1 hour of binding reactions, the cells were harvested on GF™/B filter microplates (microtiter plates with embedded glass fiber from PerkinElmer, Inc.) and washed 5 times with PBS using a Filtermate™ Harvester (a cell harvester that harvests and washes cells from microplates from PerkinElmer, Inc.). The radioactivities bound to the cells were determined using a microplate scintillation counter (TopCount® NXT, from PerkinElmer, Inc.) after adding 50 μL of Microscint™ 20 scintillation fluid (from PerkinElmer, Inc.) to each well of the filter plates. The radioactivity from non-specific binding was determined by replacing compound with 10 μM of 15(R)-15-methyl PGD2 (from Cayman Chemical Company) in the reaction mixtures. The radioactivity bound to the cells in the absence of compound (total binding) was determined by replacing compound with 0.25% of DMSO (dimethyl sulfoxide) in the reaction mixture. Specific binding data were obtained by subtracting the radioactivity of non-specific binding from each binding data.
# The IC50 value is defined as the concentration of the tested compound that is required for 50% inhibition of total specific binding. In order to calculate the IC50 value, the percent inhibition data were determined for 7 concentrations for each compound. The percent inhibition for a compound at each concentration was calculated according to the following formula, [1-(specific binding in the presence of compound)/(total specific binding)]×100. The IC50 value was then obtained by fitting the percent inhibition data to a sigmoidal dose-response (4 parameter logistic) model in the XLfit® software Excel add-in program [from ID Business Solutions Ltd., model 205, where F(x)=(A+(B−A)/(1+((C/x)^D)))].
row,IC50,SMILES
1,1160 nM,"CN(C1CCCc2c1cc(Cl)c(F)c2OCC(=O)O)S(=O)(=O)c1cc(Cl)ccc1Cl (stereo not shown) [Example 2-9, {3-Chloro-5-[(2,5-dichloro-benzenesulfonyl)-methyl-amino]-2-fluoro-5,6,7,8-tetrahydro-naphthalen-1-yloxy}-acetic acid]"
2,859 nM,"CN(C1CCCc2c(OCC(=O)O)cc(Cl)cc21)S(=O)(=O)c1cc(Cl)ccc1Cl (stereo not shown) [Example 2-10, {3-Chloro-5-[(2,5-dichloro-benzenesulfonyl)-methyl-amino]-5,6,7,8-tetrahydro-naphthalen-1-yloxy}-acetic acid]"
3,12.3 nM,"CN(C1CCCc2c1cc(Cl)c(F)c2OCC(=O)O)S(=O)(=O)c1cc(Br)cc(C(F)(F)F)c1 (stereo not shown) [Example 2-12, {5-[(3-Bromo-5-trifluoromethyl-benzenesulfonyl)-methyl-amino]-3-chloro-2-fluoro-5,6,7,8-tetrahydro-naphthalen-1-yloxy}-acetic acid]"
4,6.2 nM,"CN(C1CCCc2c(OCC(=O)O)cc(Cl)cc21)S(=O)(=O)c1cc(Br)cc(C(F)(F)F)c1 (stereo not shown) [Example 2-13, {5-[(3-Bromo-5-trifluoromethyl-benzenesulfonyl)-methyl-amino]-3-chloro-5,6,7,8-tetrahydro-naphthalen-1-yloxy}-acetic acid]"
5,11.2 nM,"CN(C1CCCc2c(OCC(=O)O)cc(Cl)cc21)S(=O)(=O)c1cc(F)cc(C(F)(F)F)c1 (stereo not shown) [Example 2-14, {3-Chloro-5-[(3-fluoro-5-trifluoromethyl-benzenesulfonyl)-methyl-amino]-5,6,7,8-tetrahydro-naphthalen-1-yloxy}-acetic acid]"
6,14.1 nM,"CN(C1CCCc2c1cc(Cl)c(F)c2OCC(=O)O)S(=O)(=O)c1cc(F)cc(C(F)(F)F)c1 (stereo not shown) [Example 2-15, {3-Chloro-2-fluoro-5-[(3-fluoro-5-trifluoromethyl-benzenesulfonyl)-methyl-amino]-5,6,7,8-tetrahydro-naphthalen-1-yloxy}-acetic acid]"
7,199 nM,CN(C1CCCc2c1ccc(F)c2OCC(=O)O)S(=O)(=O)c1cc(C(F)(F)F)cc(C(F)(F)F)c1 (stereo not shown) [Example 2-17]
8,2520 nM,"CN(C1CCCc2c1cc(F)c(F)c2OCC(=O)O)S(=O)(=O)c1ccc(Cl)cc1Cl (stereo not shown) [Example 2-18, {5-[(2,4-Dichloro-benzenesulfonyl)-methyl-amino]-2,3-difluoro-5,6,7,8-tetrahydro-naphthalen-1-yloxy}-acetic acid]"
9,2640 nM,"CN(C1CCCc2c(OCC(=O)O)cc(F)cc21)S(=O)(=O)c1cc(Cl)ccc1Cl (stereo not shown) [Example 2-19, {55-[(2,5-Dichloro-benzenesulfonyl)-methyl-amino]-3-fluoro-5,6,7,8-tetrahydro-naphthalen-1-yloxy}-acetic acid]"
10,288 nM,"CN(C1CCCc2c1cc(F)c(F)c2OCC(=O)O)S(=O)(=O)c1cc(Br)cc(C(F)(F)F)c1 (stereo not shown) [Example 2-20, {5-[(3-Bromo-5-trifluoromethyl-benzenesulfonyl)-methyl-amino]-2,3-difluoro-5,6,7,8-tetrahydro-naphthalen-1-yloxy}-acetic acid]"
11,2100 nM,"CN(C1CCCc2c1cc(F)c(F)c2OCC(=O)O)S(=O)(=O)c1cc(Cl)ccc1Cl (stereo not shown) [Example 2-21, {5-[(2,5-Dichloro-benzenesulfonyl)-methyl-amino]-2,3-difluoro-5,6,7,8-tetrahydro-naphthalen-1-yloxy}-acetic acid]"
12,5.4 nM,"CN(C1CCCc2c(OCC(=O)O)cc(F)cc21)S(=O)(=O)c1cc(Br)cc(C(F)(F)F)c1 (stereo not shown) [Example 2-22, {5-[(3-Bromo-5-trifluoromethyl-benzenesulfonyl)-methyl-amino]-3-fluoro-5,6,7,8-tetrahydro-naphthalen-1-yloxy}-acetic acid]"
13,198 nM,"CN(C1CCCc2c(OCC(=O)O)cc(F)cc21)S(=O)(=O)c1cc(F)cc(C(F)(F)F)c1 (stereo not shown) [Example 2-23, {3-Fluoro-5-[(3-fluoro-5-trifluoromethyl-benzenesulfonyl)-methyl-amino]-5,6,7,8-tetrahydro-naphthalen-1-yloxy}-acetic acid]"
